Measured values reported in article PMC10498722 (Chemical Science, 2023).

Key:
[1] = target: T1, glutathione peroxidase 4 (GPX4) (Homo sapiens, UniProt P36969); assay: GPX4 assay kit; assay type: biochemical; settings: read-out: % enhancement at 100 μM
T1 sequence (P36969 28-197): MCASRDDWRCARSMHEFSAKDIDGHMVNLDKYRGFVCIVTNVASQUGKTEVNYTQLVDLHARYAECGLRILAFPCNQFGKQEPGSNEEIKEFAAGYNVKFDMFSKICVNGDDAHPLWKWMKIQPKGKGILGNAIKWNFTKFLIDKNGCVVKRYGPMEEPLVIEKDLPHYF

[2] = target: T1, glutathione peroxidase 4 (GPX4); assay: GPX4 inhibitor screening assay kit; assay type: biochemical

activation at 100 µM [1] [%]	IC50 [2] [µM]	Structure (SMILES)
19	–	O=C(OC[C@H]1O[C@@H](OC(=O)c2cc(O)c(O)c(OC(=O)c3cc(O)c(O)c(O)c3)c2)[C@H](OC(=O)c2cc(O)c(O)c(OC(=O)c3cc(O)c(O)c(O)c3)c2)[C@@H](OC(=O)c2cc(O)c(O)c(OC(=O)c3cc(O)c(O)c(O)c3)c2)[C@@H]1OC(=O)c1cc(O)c(O)c(OC(=O)c2cc(O)c(O)c(O)c2)c1)c1cc(O)c(O)c(OC(=O)c2cc(O)c(O)c(O)c2)c1 [TA, tannic acid]
–	17.17 ± 0.17	COC(=O)c1ccc([C@H]2c3[nH]c4ccccc4c3C[C@H](C(=O)OC)N2C(=O)CCl)cc1 [RSL3]
